Experiments:
Oryza sativa [1] = assay: Effect on total protein level in Sogatella furcifera-resistanct Oryza sativa (rice) plant PR116 leaf sheath measured per gram of dry weight at 0.030% concentration (reference value: 7.06 mg/g fresh wt); format: ADME, organism-based; details: in vivo
Oryza sativa [2] = assay: Effect on total amino acids level in Sogatella furcifera-sensitive Oryza sativa (rice) plant ARC6248 leaf sheath measured per gram of dry weight at 0.030% concentration (reference value: 2.11 mg/g fresh wt); format: ADME, organism-based; details: in vivo
Oryza sativa [3] = assay: Effect on reducing sugar level in Sogatella furcifera-resistanct Oryza sativa (rice) plant PR116 leaf blade measured per gram of dry weight at 0.030% concentration (reference value: 9.35 mg/g dry wt); format: ADME, organism-based; details: in vivo
Sogatella furcifera [4] = assay: Insecticidal activity against Sogatella furcifera on insect-sensitive rice plant ARC6248 assessed as resurgence ratio at 0.030% concentration; format: functional
Oryza sativa [5] = assay: Effect on reducing sugar level in Sogatella furcifera-resistanct Oryza sativa (rice) plant PR116 leaf sheath measured per gram of dry weight at 0.030% concentration (reference value: 7.50 mg/g dry wt); format: ADME, organism-based; details: in vivo
Oryza sativa [6] = assay: Effect on total protein level in Sogatella furcifera-sensitive Oryza sativa (rice) plant ARC6248 leaf sheath measured per gram of dry weight at 0.030% concentration (reference value: 6.11 mg/g […]); format: ADME, organism-based; details: in vivo
Oryza sativa [7] = assay: Effect on total amino acids level in Sogatella furcifera-resistanct Oryza sativa (rice) plant PR116 leaf sheath measured per gram of dry weight at 0.030% concentration (reference value: 2.58 mg/g […]); format: ADME, organism-based; details: in vivo
Oryza sativa [8] = assay: Effect on reducing sugar level in Sogatella furcifera-sensitive Oryza sativa (rice) plant ARC6248 leaf sheath measured per gram of dry weight at 0.030% concentration (reference value: 6.41 mg/g dry wt); format: ADME, organism-based; details: in vivo
Oryza sativa [9] = assay: Effect on total amino acids level in Sogatella furcifera-resistanct Oryza sativa (rice) plant PR116 leaf blade measured per gram of dry weight at 0.030% concentration (reference value: 3.91 mg/g […]); format: ADME, organism-based; details: in vivo
Oryza sativa [10] = assay: Effect on total sugar level in Sogatella furcifera-sensitive Oryza sativa (rice) plant ARC6248 leaf blade measured per gram of dry weight at 0.030% concentration (reference value: 34.05 mg/g dry wt); format: ADME, organism-based; details: in vivo
Oryza sativa [11] = assay: Effect on total sugar level in Sogatella furcifera-resistanct Oryza sativa (rice) plant PR116 leaf blade measured per gram of dry weight at 0.030% concentration (reference value: 36.16 mg/g dry wt); format: ADME, organism-based; details: in vivo
Oryza sativa [12] = assay: Effect on total phenols level in Sogatella furcifera-resistanct Oryza sativa (rice) plant PR116 leaf blade measured per gram of dry weight at 0.030% concentration (reference value: 8.08 mg/g dry wt); format: ADME, organism-based; details: in vivo
Oryza sativa [13] = assay: Effect on total protein level in Sogatella furcifera-resistanct Oryza sativa (rice) plant PR116 leaf blade measured per gram of dry weight at 0.030% concentration (reference value: 21.67 mg/g fresh wt); format: ADME, organism-based; details: in vivo
Sogatella furcifera [14] = assay: Insecticidal activity against Sogatella furcifera on insect-resistanct rice plant PR116 assessed as growth index at 0.030% concentration (reference value: 6.02%); format: functional
Sogatella furcifera [15] = assay: Insecticidal activity against Sogatella furcifera on insect-resistanct rice plant PR116 assessed as nymphal survival at 0.030% concentration (reference value: 70.28%); format: functional
Oryza sativa [16] = assay: Effect on total sugar level in Sogatella furcifera-sensitive Oryza sativa (rice) plant ARC6248 leaf sheath measured per gram of dry weight at 0.030% concentration (reference value: 25.98 mg/g dry wt); format: ADME, organism-based; details: in vivo
Sogatella furcifera [17] = assay: Insecticidal activity against Sogatella furcifera on insect-sensitive rice plant ARC6248 assessed as nymphal duration at 0.030% concentration (reference value: 14.48 days); format: functional
Sogatella furcifera [18] = assay: Insecticidal activity against Sogatella furcifera on insect-sensitive rice plant ARC6248 assessed as growth index at 0.030% concentration (reference value: 2.38%); format: functional
Oryza sativa [19] = assay: Effect on total amino acids level in Sogatella furcifera-sensitive Oryza sativa (rice) plant ARC6248 leaf blade measured per gram of dry weight at 0.030% concentration (reference value: 3.54 mg/g fresh wt); format: ADME, organism-based; details: in vivo
Oryza sativa [20] = assay: Effect on total protein level in Sogatella furcifera-sensitive Oryza sativa (rice) plant ARC6248 leaf blade measured per gram of dry weight at 0.030% concentration (reference value: 17.67 mg/g […]); format: ADME, organism-based; details: in vivo
Sogatella furcifera [21] = assay: Insecticidal activity against Sogatella furcifera on insect-sensitive rice plant ARC6248 assessed as nymphal survival at 0.030% concentration (reference value: 34.17%); format: functional
Oryza sativa [22] = assay: Effect on total phenols level in Sogatella furcifera-sensitive Oryza sativa (rice) plant ARC6248 leaf blade measured per gram of dry weight at 0.030% concentration (reference value: 17.08 mg/g dry wt); format: ADME, organism-based; details: in vivo
Oryza sativa [23] = assay: Effect on total phenols level in Sogatella furcifera-resistanct Oryza sativa (rice) plant PR116 leaf sheath measured per gram of dry weight at 0.030% concentration (reference value: 5.75 mg/g dry wt); format: ADME, organism-based; details: in vivo
Sogatella furcifera [24] = assay: Insecticidal activity against Sogatella furcifera on insect-resistanct rice plant PR116 assessed as resurgence ratio at 0.030% concentration; format: functional
Sogatella furcifera [25] = assay: Insecticidal activity against Sogatella furcifera on insect-resistanct rice plant PR116 assessed as nymphal duration at 0.030% concentration (reference value: 11.75 days); format: functional
Oryza sativa [26] = assay: Effect on total sugar level in Sogatella furcifera-resistanct Oryza sativa (rice) plant PR116 leaf sheath measured per gram of dry weight at 0.030% concentration (reference value: 30.27 mg/g dry wt); format: ADME, organism-based; details: in vivo
Oryza sativa [27] = assay: Effect on total phenols level in Sogatella furcifera-sensitive Oryza sativa (rice) plant ARC6248 leaf sheath measured per gram of dry weight at 0.030% concentration (reference value: 12.75 mg/g dry wt); format: ADME, organism-based; details: in vivo
Oryza sativa [28] = assay: Effect on reducing sugar level in Sogatella furcifera-sensitive Oryza sativa (rice) plant ARC6248 leaf blade measured per gram of dry weight at 0.030% concentration (reference value: 8.37 mg/g dry wt); format: ADME, organism-based; details: in vivo

COP(=S)(OC)Oc1ccc([N+](=O)[O-])cc1 [METHYL PARATHIONE]
Activity (Oryza sativa [1]): 8.67 mg | Activity (Oryza sativa [2]): 2.86 mg | Activity (Oryza sativa [3]): 14.89 mg | Ratio (Sogatella furcifera [4]): 1.26 | Activity (Oryza sativa [5]): 11.63 mg | Activity (Oryza sativa [6]): 8.33 mg | Activity (Oryza sativa [7]): 3.64 mg | Activity (Oryza sativa [8]): 9.89 mg | Activity (Oryza sativa [9]): 4.53 mg | Activity (Oryza sativa [10]): 39.37 mg | Activity (Oryza sativa [11]): 38.3 mg | Activity (Oryza sativa [12]): 7.5 mg | Activity (Oryza sativa [13]): 23.33 mg | growth inhibition (GI) (Sogatella furcifera [14]): 6.76% | Survival (Sogatella furcifera [15]): 77.78% | Activity (Oryza sativa [16]): 33.21 mg | Time (Sogatella furcifera [17]): 14.35 days | growth inhibition (GI) (Sogatella furcifera [18]): 2.87% | Activity (Oryza sativa [19]): 4.04 mg | Activity (Oryza sativa [20]): 21.17 mg | Survival (Sogatella furcifera [21]): 40.83% | Activity (Oryza sativa [22]): 16.08 mg | Activity (Oryza sativa [23]): 5.58 mg | Ratio (Sogatella furcifera [24]): 1.69 | Time (Sogatella furcifera [25]): 11.57 days | Activity (Oryza sativa [26]): 33.48 mg | Activity (Oryza sativa [27]): 11.08 mg | Activity (Oryza sativa [28]): 10.54 mg

— ChEMBL document CHEMBL3045481, “Insecticide-induced resurgence of the whitebacked planthopper Sogatella furcifera (Horvath) (Hemiptera: Delphacidae) on rice varieties with different levels of resistance” (Crop Prot, 2011)
